Results as given in ChEMBL document CHEMBL4610024, “The ceramide analogue N-(1-hydroxy-3-morpholino-1-phenylpropan-2-yl)decanamide induces large lipid droplet accumulation and highlights the effect of LAMP-2 deficiency on lipid droplet degradation” (Bioorg Med Chem Lett, 2020).
Active and inactive are the calls of the source. The calls are words filed in the database; no cut-off is given here.

Legend:
[1] = molecular target: T1, Lysosome-associated membrane glycoprotein 2 (Mus musculus) (UniProt P17047); assay: Induction of LAMP2-mediated lipid droplet enlargement in mouse L cells at 40 uM measured after 17 hrs by LipiDye staining based assay; type: cell-based; settings: L929
T1 sequence (whole entry): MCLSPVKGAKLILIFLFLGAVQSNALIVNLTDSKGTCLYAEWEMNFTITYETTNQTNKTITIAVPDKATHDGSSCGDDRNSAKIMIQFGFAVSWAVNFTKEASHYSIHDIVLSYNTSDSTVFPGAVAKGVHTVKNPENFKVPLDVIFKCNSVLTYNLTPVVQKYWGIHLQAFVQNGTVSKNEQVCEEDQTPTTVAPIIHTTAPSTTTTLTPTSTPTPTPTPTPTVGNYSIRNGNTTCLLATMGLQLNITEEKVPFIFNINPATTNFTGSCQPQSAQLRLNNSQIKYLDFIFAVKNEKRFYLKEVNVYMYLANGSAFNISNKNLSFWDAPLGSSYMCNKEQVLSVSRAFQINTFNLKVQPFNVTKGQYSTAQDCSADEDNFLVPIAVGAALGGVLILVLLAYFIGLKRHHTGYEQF

[2] = tested on: L929; assay: Induction of lipid droplet degradation in CRISPR/Cas9-mediated LAMP2 knocked out mouse L cells at 40 uM measured after 17 hrs by LipiDye staining based assay; type: functional, cell-based
[3] = molecular target: T1, Lysosome-associated membrane glycoprotein 2 (Mus musculus); assay: Induction of LAMP2-mediated autophagy in mouse L cells assessed as increase in LC3 puncta at 40 uM measured after 17 hrs by Hoechst 33342 staining based assay; type: cell-based; settings: L929
[4] = tested on: L929; assay: Induction of autophagy in CRISPR/Cas9-mediated LAMP2 knocked out mouse L cells assessed as increase in […] puncta at 40 uM measured after 17 hrs by Hoechst 33342 staining based assay; type: functional, cell-based
[5] = tested on: L929; assay: Induction of autophagy in CRISPR/Cas9-mediated LAMP2 knocked out mouse L cells assessed as formation of LC3 puncta rim around large autophagosome at 40 uM measured after 17 hrs by Hoechst 33342 staining based assay; type: functional, cell-based
[6] = tested on: L929; assay: Induction of autophagy in CRISPR/Cas9-mediated LAMP2 knocked out mouse L cells assessed as formation of LC3 puncta rim in other part of cell at 40 uM measured after 17 hrs by Hoechst 33342 staining based assay; type: functional
[7] = tested on: L929; assay: Induction of large autophagosome formation in CRISPR/Cas9-mediated LAMP2 knocked out mouse L cells assessed as degradation of multilamellar bodies at 40 uM measured after 17 hrs by transmission electron microscopy analysis; type: functional, cell-based
[8] = tested on: L929; assay: Induction of large autophagosome formation in CRISPR/Cas9-mediated LAMP2 knocked out mouse L cells assessed as accumulation of abnormal multilamellar bodies at 40 uM measured after 17 hrs by transmission electron microscopy analysis; type: functional, cell-based
[9] = tested on: L929; assay: Induction of large autophagosome formation in CRISPR/Cas9-mediated LAMP2 knocked out mouse L cells assessed as decrease in multilamellar bodies layers at 40 uM measured after 17 hrs by transmission electron microscopy analysis; type: functional, cell-based
[10] = tested on: L929; assay: Induction of large autophagosome formation in CRISPR/Cas9-mediated LAMP2 knocked out mouse L cells assessed as loosened multilamellar bodies at 40 uM measured after 17 hrs by transmission electron microscopy analysis; type: functional, cell-based
[11] = molecular target: T1, Lysosome-associated membrane glycoprotein 2 (Mus musculus); assay: Induction of LAMP2-mediated lipid droplet degradation in mouse L cells assessed as increase in length of long axis of lipid droplet at 40 uM measured after 17 hrs by transmission electron microscopy analysis; type: cell-based; settings: L929
[12] = tested on: L929; assay: Induction of lipid droplet degradation in CRISPR/Cas9-mediated LAMP2 knocked out mouse L cells assessed as decrease in number of lipid droplet with long axis exceeding 1 um at 40 uM measured after 17 hrs by transmission electron microscopy analysis; type: functional, cell-based

## CCCCCCCCCC(=O)NC(CN1CCOCC1)C(O)c1ccccc1 (configuration not stated)
[1]
  Activity: Active
[2]
  Activity: inactive
[3]
  Activity: Active
[4]
  Activity: Active
[5]
  Activity: Active
[6]
  Activity: inactive
[7]
  Activity: Active
[8]
  Activity: Active
[9]
  Activity: Active
[10]
  Activity: Active
[11]
  Activity: Active
[12]
  Activity: inactive
